PubChem BioAssay (NCI)
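Values below derive from 48-hour exposures of cells grown in 96-well plates, with endpoints linearly interpolated between the two concentrations bracketing the appropriate inhibition level. Definition used: TGI = concentration required for complete inhibition of growth.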

Columns and labels:
Assay in all cases: DTP human tumour cell line panel, 48 h
[1] = tested on: SF-539 CNS
[2] = tested on: SW-620 colon
[3] = tested on: SK-MEL-2 melanoma
[4] = tested on: SK-MEL-28 melanoma
[5] = tested on: U251 CNS
[6] = tested on: SNB-19 CNS
[7] = tested on: ACHN renal
[8] = tested on: SN12C renal
[9] = tested on: HT29 colon
[10] = tested on: HL-60(TB) leukemia
[11] = tested on: LOX IMVI melanoma
[12] = tested on: HCC-2998 colon
[13] = tested on: EKVX NSCLC
[14] = tested on: SF-295 CNS
[15] = tested on: NCI-H460 lung
[16] = tested on: DMS 114 small cell lung
[17] = tested on: SF-268 CNS
[18] = tested on: SNB-78 CNS
[19] = tested on: OVCAR-5 ovarian
[20] = tested on: DLD-1 colon
[21] = tested on: IGROV1 ovarian
[22] = tested on: RPMI-8226 leukemia
[23] = tested on: A498 renal
[24] = tested on: OVCAR-8 ovarian
[25] = tested on: K-562 leukemia
[26] = tested on: 786-0 renal
[27] = tested on: SR leukemia
[28] = tested on: MOLT-4 leukemia
[29] = tested on: LXFL 529 NSCLC
[30] = tested on: HCT-116 colon
[31] = tested on: A549 NSCLC
[32] = tested on: NCI-H522 lung
[33] = tested on: DMS 273 small cell lung
[34] = tested on: UO-31 renal
[35] = tested on: SNB-75 CNS
[36] = tested on: KM12 colon
[37] = tested on: OVCAR-3 ovarian
[38] = tested on: HOP-62 NSCLC
[39] = tested on: RXF 393 renal
[40] = tested on: XF 498 CNS
[41] = tested on: M19-MEL melanoma
[42] = tested on: MALME-3M melanoma
[43] = tested on: COLO 205 colon
[44] = tested on: OVCAR-4 ovarian
[45] = tested on: HCT-15 colon
[46] = tested on: CAKI-1 renal
[47] = tested on: HOP-92 NSCLC
[48] = tested on: SK-OV-3 ovarian
[49] = tested on: NCI-H226 lung
[50] = tested on: KM20L2 colon
[51] = tested on: CCRF-CEM leukemia
[52] = tested on: M14 melanoma
[53] = tested on: NCI-H23 lung
[54] = tested on: NCI/ADR-RES ovarian
[55] = tested on: PC-3 prostate
[56] = tested on: TK-10 renal
[57] = tested on: HS 578T breast
[58] = tested on: MDA-MB-231 breast
[59] = tested on: MDA-MB-435
[60] = tested on: DU-145 prostate
[61] = tested on: UACC-62 melanoma
[62] = tested on: SK-MEL-5 melanoma
[63] = tested on: MCF7 breast
[64] = tested on: MDA-N
[65] = tested on: UACC-257 melanoma
[66] = tested on: HOP-18 NSCLC
[67] = tested on: T-47D breast

COc1cc([C@@H]2OCC3C(c4ccc5c(c4)OCO5)OCC32)cc(OC)c1OC (stereo not given in full)
TGI [1]: > 100 µM
TGI [2]: > 100 µM
TGI [3]: > 100 µM
TGI [4]: > 100 µM
TGI [5]: > 100 µM
TGI [6]: > 100 µM
TGI [7]: > 100 µM
TGI [8]: > 100 µM
TGI [9]: > 100 µM
TGI [10]: > 100 µM
TGI [11]: > 100 µM
TGI [12]: > 100 µM
TGI [13]: > 100 µM
TGI [14]: > 100 µM
TGI [15]: > 100 µM
TGI [16]: > 100 µM
TGI [17]: > 100 µM
TGI [18]: > 100 µM
TGI [19]: > 100 µM
TGI [20]: > 100 µM
TGI [21]: > 100 µM
TGI [22]: > 100 µM
TGI [23]: > 100 µM
TGI [24]: > 100 µM
TGI [25]: > 100 µM
TGI [26]: > 100 µM
TGI [27]: > 100 µM
TGI [28]: > 100 µM
TGI [29]: > 100 µM
TGI [30]: > 100 µM
TGI [31]: > 100 µM
TGI [32]: > 100 µM
TGI [33]: > 100 µM
TGI [34]: > 100 µM
TGI [35]: > 100 µM
TGI [36]: > 100 µM
TGI [37]: > 100 µM
TGI [38]: > 100 µM
TGI [39]: > 100 µM
TGI [40]: > 100 µM
TGI [41]: > 100 µM
TGI [42]: > 100 µM
TGI [43]: > 100 µM
TGI [44]: > 100 µM
TGI [45]: > 100 µM
TGI [46]: > 100 µM
TGI [47]: 60.9 µM
TGI [48]: > 100 µM
TGI [49]: > 100 µM
TGI [50]: > 100 µM
TGI [51]: > 100 µM
TGI [52]: > 100 µM
TGI [53]: > 100 µM

Cc1cc(=O)[nH]c(NN2C(Cl)C(=O)C2c2ccccc2O)n1 (stereo not given)
TGI [1]: > 58.6 µM
TGI [2]: > 100 µM
TGI [3]: > 100 µM
TGI [4]: > 65.4 µM
TGI [5]: > 100 µM
TGI [6]: > 100 µM
TGI [7]: > 100 µM
TGI [8]: > 64 µM
TGI [9]: > 100 µM
TGI [10]: > 100 µM
TGI [54]: 40.4 µM
TGI [11]: > 100 µM
TGI [12]: > 100 µM
TGI [13]: > 75.1 µM
TGI [14]: > 100 µM
TGI [15]: > 100 µM
TGI [16]: 6.44 µM
TGI [55]: > 100 µM
TGI [17]: > 100 µM
TGI [18]: > 100 µM
TGI [19]: > 100 µM
TGI [56]: > 100 µM
TGI [21]: > 100 µM
TGI [22]: > 63.2 µM
TGI [57]: > 100 µM
TGI [58]: > 100 µM
TGI [23]: > 100 µM
TGI [24]: > 100 µM
TGI [25]: > 100 µM
TGI [26]: > 100 µM
TGI [59]: > 100 µM
TGI [27]: > 100 µM
TGI [28]: > 100 µM
TGI [29]: 54.5 µM
TGI [30]: > 42.7 µM
TGI [60]: > 100 µM
TGI [31]: > 100 µM
TGI [61]: > 46.7 µM
TGI [33]: 15.3 µM
TGI [34]: > 78.1 µM
TGI [35]: > 76.2 µM
TGI [36]: > 100 µM
TGI [62]: 17.2 µM
TGI [63]: > 100 µM
TGI [37]: 23.3 µM
TGI [38]: > 100 µM
TGI [39]: > 100 µM
TGI [41]: > 100 µM
TGI [43]: > 76.8 µM
TGI [44]: > 100 µM
TGI [45]: > 100 µM
TGI [46]: > 100 µM
TGI [64]: > 100 µM
TGI [47]: 32.4 µM
TGI [65]: > 100 µM
TGI [66]: 8.97 µM
TGI [48]: > 100 µM
TGI [49]: 9.16 µM
TGI [50]: > 100 µM
TGI [51]: > 100 µM
TGI [67]: > 100 µM
TGI [52]: > 34.7 µM
TGI [53]: > 100 µM

COc1ccc2c3c1C(=O)CCCC3CO2 (stereo not given)
TGI [1]: > 100 µM
TGI [2]: > 100 µM
TGI [3]: > 100 µM
TGI [4]: > 100 µM
TGI [5]: > 100 µM
TGI [6]: > 100 µM
TGI [7]: > 100 µM
TGI [8]: > 100 µM
TGI [9]: > 100 µM
TGI [10]: > 100 µM
TGI [11]: > 100 µM
TGI [12]: > 100 µM
TGI [14]: > 100 µM
TGI [15]: > 100 µM
TGI [16]: > 100 µM
TGI [17]: > 100 µM
TGI [18]: > 100 µM
TGI [19]: > 100 µM
TGI [56]: > 100 µM
TGI [20]: > 100 µM
TGI [21]: > 100 µM
TGI [22]: > 100 µM
TGI [23]: > 100 µM
TGI [24]: > 100 µM
TGI [25]: > 100 µM
TGI [26]: > 100 µM
TGI [28]: > 100 µM
TGI [29]: > 100 µM
TGI [31]: > 100 µM
TGI [32]: > 100 µM
TGI [61]: > 100 µM
TGI [33]: > 100 µM
TGI [34]: > 100 µM
TGI [35]: > 100 µM
TGI [36]: > 100 µM
TGI [62]: > 100 µM
TGI [37]: > 100 µM
TGI [38]: > 100 µM
TGI [39]: > 100 µM
TGI [40]: > 100 µM
TGI [41]: > 100 µM
TGI [42]: > 100 µM
TGI [43]: > 100 µM
TGI [44]: > 100 µM
TGI [45]: > 100 µM
TGI [47]: > 100 µM
TGI [65]: > 100 µM
TGI [48]: > 100 µM
TGI [49]: > 100 µM
TGI [51]: > 100 µM
TGI [52]: > 100 µM
TGI [53]: > 100 µM

COc1ccc(C(=O)C(C(=O)CCC(=O)Nc2ccc(C)c(C)c2)c2ccc(OC)cc2)cc1 (stereo not given)
TGI [2]: > 100 µM
TGI [3]: > 100 µM
TGI [8]: > 100 µM
TGI [9]: > 100 µM
TGI [10]: > 100 µM
TGI [11]: > 100 µM
TGI [12]: > 100 µM
TGI [14]: > 100 µM
TGI [15]: > 100 µM
TGI [16]: > 100 µM
TGI [19]: > 100 µM
TGI [24]: > 100 µM
TGI [27]: > 100 µM
TGI [29]: > 100 µM
TGI [30]: > 100 µM
TGI [33]: > 100 µM
TGI [34]: > 100 µM
TGI [36]: > 100 µM
TGI [37]: > 100 µM
TGI [38]: > 100 µM
TGI [41]: > 100 µM
TGI [42]: > 100 µM
TGI [43]: > 100 µM
TGI [44]: > 100 µM
TGI [45]: > 100 µM
TGI [46]: > 100 µM
TGI [47]: > 100 µM
TGI [65]: > 100 µM
TGI [66]: > 100 µM
TGI [49]: > 100 µM
TGI [50]: > 100 µM
TGI [52]: > 100 µM
